From ChEMBL document CHEMBL1139115, “Thyroid receptor ligands. Part 7: Indirect antagonists of the thyroid hormone receptor with improved affinity” (Bioorg Med Chem Lett, 2007)

Legend:
[1] = target: T1, Thyroid hormone receptor alpha (Homo sapiens, UniProt P10827); experiment: Binding affinity at human TRalpha1
T1 sequence (P10827 whole entry): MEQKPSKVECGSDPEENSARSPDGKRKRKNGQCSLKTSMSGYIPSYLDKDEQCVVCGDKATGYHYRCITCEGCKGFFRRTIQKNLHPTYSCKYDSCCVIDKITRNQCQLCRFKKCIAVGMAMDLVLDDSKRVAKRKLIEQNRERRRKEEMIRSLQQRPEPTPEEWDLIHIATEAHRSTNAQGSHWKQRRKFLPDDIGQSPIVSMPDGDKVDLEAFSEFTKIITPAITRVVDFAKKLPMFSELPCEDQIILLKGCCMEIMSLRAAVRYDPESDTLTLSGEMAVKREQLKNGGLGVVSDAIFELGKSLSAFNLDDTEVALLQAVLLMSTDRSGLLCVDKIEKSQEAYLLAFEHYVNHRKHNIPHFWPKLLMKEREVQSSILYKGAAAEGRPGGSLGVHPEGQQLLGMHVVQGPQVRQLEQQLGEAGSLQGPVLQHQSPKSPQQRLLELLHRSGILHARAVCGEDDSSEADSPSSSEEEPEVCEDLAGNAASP

[2] = target: T2, Thyroid hormone receptor beta (Homo sapiens, UniProt P10828); experiment: Binding affinity at human TRbeta1
T2 sequence (P10828 whole entry): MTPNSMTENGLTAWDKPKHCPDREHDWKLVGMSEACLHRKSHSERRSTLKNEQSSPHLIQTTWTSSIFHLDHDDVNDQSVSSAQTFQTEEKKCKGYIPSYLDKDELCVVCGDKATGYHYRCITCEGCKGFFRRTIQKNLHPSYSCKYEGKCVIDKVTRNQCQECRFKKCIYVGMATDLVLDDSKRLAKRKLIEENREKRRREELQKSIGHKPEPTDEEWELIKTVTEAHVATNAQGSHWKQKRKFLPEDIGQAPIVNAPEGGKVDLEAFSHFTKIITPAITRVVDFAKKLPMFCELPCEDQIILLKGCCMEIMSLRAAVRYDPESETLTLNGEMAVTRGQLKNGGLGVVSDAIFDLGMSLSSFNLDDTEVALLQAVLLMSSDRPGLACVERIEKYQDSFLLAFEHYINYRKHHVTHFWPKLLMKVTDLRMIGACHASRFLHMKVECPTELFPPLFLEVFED

Homo sapiens = species: Homo sapiens; experiment: Selectivity for human TR-alpha-1 to human TRbeta1
[3] = target: T1, Thyroid hormone receptor alpha; experiment: Displacement of L-T3 from human TR-alpha-1 expressed in CHOK1 cells assessed as TRAF-alpha-1-driven gene transactivation by alkaline phosphatase reporter gene assay; format: cell-based, CHO-K1
[4] = target: T3, Thyroid hormone receptor alpha (Homo sapiens) (UniProt P10827); experiment: (§1) Antagonist activity at human TR-alpha-1 expressed in CHO cells assessed as TRAF-alpha-1-driven gene transactivation by alkaline phosphatase reporter gene assay; format: functional, cell-based; parameters: scale not given: the % may be the effect or the level left
T3 sequence (whole entry): T1 sequence (P10827 whole entry)

[5] = target: T1, Thyroid hormone receptor alpha; experiment: as §1; format: functional, cell-based
Androgen receptor = target: T4, Androgen receptor (Homo sapiens, UniProt P10275); experiment: Binding affinity at AR
T4 sequence (P10275 whole entry): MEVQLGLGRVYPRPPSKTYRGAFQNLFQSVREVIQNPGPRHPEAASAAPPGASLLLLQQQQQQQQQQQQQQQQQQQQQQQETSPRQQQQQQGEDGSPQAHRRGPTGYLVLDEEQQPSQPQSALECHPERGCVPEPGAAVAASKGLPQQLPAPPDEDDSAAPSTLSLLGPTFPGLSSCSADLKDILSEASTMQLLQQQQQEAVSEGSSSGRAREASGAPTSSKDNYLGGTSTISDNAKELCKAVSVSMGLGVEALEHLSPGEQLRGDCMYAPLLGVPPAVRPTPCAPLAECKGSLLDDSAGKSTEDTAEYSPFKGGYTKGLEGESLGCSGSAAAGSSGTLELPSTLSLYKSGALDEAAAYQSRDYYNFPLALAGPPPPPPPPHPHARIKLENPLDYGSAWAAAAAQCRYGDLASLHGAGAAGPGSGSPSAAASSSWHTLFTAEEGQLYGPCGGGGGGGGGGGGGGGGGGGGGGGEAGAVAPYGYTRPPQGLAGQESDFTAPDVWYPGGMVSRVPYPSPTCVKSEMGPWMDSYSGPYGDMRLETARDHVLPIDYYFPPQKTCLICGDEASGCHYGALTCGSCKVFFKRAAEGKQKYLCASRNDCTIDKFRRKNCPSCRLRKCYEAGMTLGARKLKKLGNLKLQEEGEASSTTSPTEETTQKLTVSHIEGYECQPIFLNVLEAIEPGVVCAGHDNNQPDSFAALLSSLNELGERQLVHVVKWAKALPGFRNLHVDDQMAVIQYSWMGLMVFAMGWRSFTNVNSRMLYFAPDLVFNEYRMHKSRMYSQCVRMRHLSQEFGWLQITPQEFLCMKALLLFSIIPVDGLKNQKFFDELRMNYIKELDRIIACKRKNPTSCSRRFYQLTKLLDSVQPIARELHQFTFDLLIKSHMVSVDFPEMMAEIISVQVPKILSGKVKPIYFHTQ

Estrogen receptor = target: T5, Estrogen receptor (Homo sapiens, UniProt P03372); experiment: Binding affinity at ERalpha
T5 sequence (P03372 whole entry): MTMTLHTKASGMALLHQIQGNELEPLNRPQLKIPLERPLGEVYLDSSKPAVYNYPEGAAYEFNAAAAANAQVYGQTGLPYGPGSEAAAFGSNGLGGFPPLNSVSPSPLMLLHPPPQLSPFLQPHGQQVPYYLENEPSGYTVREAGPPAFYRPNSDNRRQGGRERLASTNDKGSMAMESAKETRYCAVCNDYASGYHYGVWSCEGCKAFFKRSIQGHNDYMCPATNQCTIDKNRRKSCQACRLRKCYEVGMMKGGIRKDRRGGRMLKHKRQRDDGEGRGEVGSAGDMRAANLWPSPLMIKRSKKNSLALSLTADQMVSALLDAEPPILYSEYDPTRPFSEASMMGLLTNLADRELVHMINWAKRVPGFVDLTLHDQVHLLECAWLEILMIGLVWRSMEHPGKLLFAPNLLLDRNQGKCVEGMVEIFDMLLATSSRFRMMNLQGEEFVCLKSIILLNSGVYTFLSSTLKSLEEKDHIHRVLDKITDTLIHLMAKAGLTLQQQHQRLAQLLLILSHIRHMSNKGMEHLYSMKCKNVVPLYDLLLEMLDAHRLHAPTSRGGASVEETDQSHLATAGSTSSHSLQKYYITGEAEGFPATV

Glucocorticoid receptor = target: T6, Glucocorticoid receptor (Homo sapiens, UniProt P04150); experiment: Binding affinity at GR
T6 sequence (P04150 whole entry): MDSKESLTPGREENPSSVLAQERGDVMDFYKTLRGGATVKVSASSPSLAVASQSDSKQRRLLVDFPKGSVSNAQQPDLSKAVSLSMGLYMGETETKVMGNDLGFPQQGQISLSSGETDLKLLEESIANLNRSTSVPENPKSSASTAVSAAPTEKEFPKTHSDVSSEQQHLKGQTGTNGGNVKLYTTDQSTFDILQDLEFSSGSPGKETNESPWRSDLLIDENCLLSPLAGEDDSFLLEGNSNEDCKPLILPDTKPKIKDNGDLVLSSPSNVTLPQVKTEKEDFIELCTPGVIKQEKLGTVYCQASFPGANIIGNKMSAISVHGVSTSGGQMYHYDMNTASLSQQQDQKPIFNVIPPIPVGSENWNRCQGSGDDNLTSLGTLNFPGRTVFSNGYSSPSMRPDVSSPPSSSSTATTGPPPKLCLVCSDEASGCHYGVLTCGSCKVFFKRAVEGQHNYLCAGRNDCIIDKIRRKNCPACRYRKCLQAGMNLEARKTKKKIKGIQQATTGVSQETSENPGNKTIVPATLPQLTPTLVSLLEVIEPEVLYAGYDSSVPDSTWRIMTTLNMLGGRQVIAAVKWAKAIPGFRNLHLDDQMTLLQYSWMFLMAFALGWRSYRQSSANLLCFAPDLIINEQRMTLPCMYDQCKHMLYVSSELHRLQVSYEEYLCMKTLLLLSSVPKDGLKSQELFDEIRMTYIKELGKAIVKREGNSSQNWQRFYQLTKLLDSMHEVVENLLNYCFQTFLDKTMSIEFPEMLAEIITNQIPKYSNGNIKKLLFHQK

Progesterone receptor = target: T7, Progesterone receptor (Homo sapiens, UniProt P06401); experiment: Binding affinity at PR
T7 sequence (P06401 whole entry): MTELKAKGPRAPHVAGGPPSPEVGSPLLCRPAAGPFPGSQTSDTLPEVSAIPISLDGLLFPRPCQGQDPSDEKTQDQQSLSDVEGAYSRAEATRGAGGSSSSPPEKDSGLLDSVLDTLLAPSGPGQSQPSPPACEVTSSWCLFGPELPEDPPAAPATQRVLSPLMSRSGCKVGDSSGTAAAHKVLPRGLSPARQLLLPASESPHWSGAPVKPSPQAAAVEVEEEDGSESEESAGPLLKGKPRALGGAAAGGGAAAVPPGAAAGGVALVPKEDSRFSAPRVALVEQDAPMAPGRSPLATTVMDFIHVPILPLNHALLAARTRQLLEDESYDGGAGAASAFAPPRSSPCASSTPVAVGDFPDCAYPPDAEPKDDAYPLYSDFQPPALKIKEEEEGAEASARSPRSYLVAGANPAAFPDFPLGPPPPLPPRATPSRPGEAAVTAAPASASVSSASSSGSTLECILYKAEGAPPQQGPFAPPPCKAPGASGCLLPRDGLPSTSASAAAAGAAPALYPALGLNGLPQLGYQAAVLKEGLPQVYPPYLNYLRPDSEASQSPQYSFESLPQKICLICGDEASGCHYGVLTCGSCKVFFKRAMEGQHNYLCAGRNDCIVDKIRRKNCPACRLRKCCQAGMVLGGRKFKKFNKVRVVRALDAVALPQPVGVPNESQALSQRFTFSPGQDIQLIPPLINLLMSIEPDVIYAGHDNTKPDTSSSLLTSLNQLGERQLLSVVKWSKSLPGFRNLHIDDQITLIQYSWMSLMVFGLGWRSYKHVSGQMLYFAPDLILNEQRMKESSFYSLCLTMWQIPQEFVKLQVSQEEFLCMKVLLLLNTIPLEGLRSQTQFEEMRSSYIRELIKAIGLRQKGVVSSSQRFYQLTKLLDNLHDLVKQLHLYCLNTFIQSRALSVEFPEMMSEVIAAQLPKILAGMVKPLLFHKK

[6] = target: T8, Mineralocorticoid receptor (Homo sapiens, UniProt P08235); experiment: Binding affinity at MR
T8 sequence (P08235 whole entry): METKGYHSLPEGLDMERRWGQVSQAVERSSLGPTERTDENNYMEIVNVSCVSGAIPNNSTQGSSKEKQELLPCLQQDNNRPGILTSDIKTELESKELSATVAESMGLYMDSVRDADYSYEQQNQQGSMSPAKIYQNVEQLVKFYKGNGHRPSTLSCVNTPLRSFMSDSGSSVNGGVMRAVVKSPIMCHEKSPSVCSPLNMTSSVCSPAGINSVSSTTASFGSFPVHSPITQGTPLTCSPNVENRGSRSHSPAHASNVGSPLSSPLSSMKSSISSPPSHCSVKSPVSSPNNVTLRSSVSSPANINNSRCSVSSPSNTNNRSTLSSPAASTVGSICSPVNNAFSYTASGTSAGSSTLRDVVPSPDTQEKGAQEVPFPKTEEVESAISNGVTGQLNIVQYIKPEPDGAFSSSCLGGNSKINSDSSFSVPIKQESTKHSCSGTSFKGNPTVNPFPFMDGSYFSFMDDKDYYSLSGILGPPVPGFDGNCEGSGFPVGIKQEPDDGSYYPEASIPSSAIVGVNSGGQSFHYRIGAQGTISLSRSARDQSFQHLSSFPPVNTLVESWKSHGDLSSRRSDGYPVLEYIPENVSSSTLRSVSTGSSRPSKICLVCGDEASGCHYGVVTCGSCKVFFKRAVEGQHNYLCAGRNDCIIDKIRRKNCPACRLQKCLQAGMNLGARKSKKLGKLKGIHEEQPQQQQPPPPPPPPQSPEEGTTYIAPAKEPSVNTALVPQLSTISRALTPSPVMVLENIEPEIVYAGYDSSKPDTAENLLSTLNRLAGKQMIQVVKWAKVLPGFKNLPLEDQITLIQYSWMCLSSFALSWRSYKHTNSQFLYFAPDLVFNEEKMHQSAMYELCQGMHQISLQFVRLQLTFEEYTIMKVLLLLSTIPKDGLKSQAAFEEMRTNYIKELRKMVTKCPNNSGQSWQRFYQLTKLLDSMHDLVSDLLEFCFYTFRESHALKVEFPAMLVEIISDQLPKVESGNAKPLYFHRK

[7] = target: T2, Thyroid hormone receptor beta
Description: Antagonist activity at human TR-beta-1 expressed in CHO cells assessed as TRAF-beta-1-driven gene transactivation by alkaline phosphatase reporter gene assay

[8] = target: T2, Thyroid hormone receptor beta; experiment: Agonist activity at human TR-beta-1 expressed in CHO cells assessed as TRAF-beta-1-driven gene transactivation by alkaline phosphatase reporter gene assay; format: functional, cell-based
[9] = target: T1, Thyroid hormone receptor alpha
Description: Agonist activity at human TR-alpha-1 expressed in CHO cells assessed as TRAF-alpha-1-driven gene transactivation by alkaline phosphatase reporter gene assay

IC50 [1] [nM]	IC50 [2] [nM]	Ratio IC50 (Homo sapiens)	SMILES	further results
1300	200	3.8	Cc1ccccc1COc1c(Br)cc(CCC(=O)O)cc1Br	
500	190	1.5	O=C(O)CCc1cc(Br)c(OCc2cccc(Cl)c2)c(Br)c1	
360	120	1.8	Cc1cccc(COc2c(Br)cc(CCC(=O)O)cc2Br)c1	
78	23	3.4	CCNc1cccc(COc2c(Br)cc(CCC(=O)O)cc2Br)c1	EC50 [8]: 49 nM; EC50 [9]: 23 nM
2600	820	4.5	Nc1cccc(COc2c(Br)cc(CCC(=O)O)cc2Br)c1	
370	160	1.4	O=C(O)CCc1cc(Br)c(OCc2cccc(C(F)(F)F)c2)c(Br)c1	

Continued, compound first:

SMILES	IC50 [1] [nM]	IC50 [2] [nM]	Ratio IC50 (Homo sapiens)	further results
Cc1ccc(COc2c(Br)cc(CCC(=O)O)cc2Br)cc1	600	360	0.98	
O=C(O)CCc1cc(Br)c(OCc2cccc(Br)c2)c(Br)c1	99	60	0.97	IC50 [3]: 90 nM; Activity [4]: 80%; IC50 [5]: 380 nM; IC50 (Androgen receptor): 7700 nM; IC50 (Estrogen receptor): 29000 nM; IC50 (Glucocorticoid receptor): 14000 nM; IC50 (Progesterone receptor): 2500 nM; IC50 [6]: 8700 nM; IC50 [7]: 230 nM
O=C(O)CCc1cc(Br)c(OCc2ccccc2)c(Br)c1	680	230	1.7	
CCN(CC)c1cccc(COc2c(Br)cc(CCC(=O)O)cc2Br)c1	480	87	3.2	
